The nature of series [1]: Tissue distribution test in mice. The settings on record: 16 mg/kg subcutaneous injection. It is filed as in vivo. Set-up: content in the brain (tissue distribution): unit not given here.
Series [2] deals with T1, recombinant human protein MAGL (Homo sapiens, UniProt Q99685).
T1 construct: purchased Cayman
T1 sequence (Q99685 1-303): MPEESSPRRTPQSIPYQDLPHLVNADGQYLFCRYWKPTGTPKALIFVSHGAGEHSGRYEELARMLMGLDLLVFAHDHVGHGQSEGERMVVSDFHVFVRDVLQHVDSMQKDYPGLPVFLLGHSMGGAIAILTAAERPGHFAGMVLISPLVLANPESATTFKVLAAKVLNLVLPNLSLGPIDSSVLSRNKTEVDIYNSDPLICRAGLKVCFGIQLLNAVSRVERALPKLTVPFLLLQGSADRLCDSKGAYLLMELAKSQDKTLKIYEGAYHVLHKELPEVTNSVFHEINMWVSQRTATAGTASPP
The series can be described thus: MAGL enzyme analysis (Cayman MAGL inhibitor screening kit). It counts as biochemical. The settings on record: 4-nitrophenylacetic acid substrate, absorbance 410 nm, read-out: MAGLXIC50. As for the experimental part:
150 µL 1Xassay buffer, 10 µL recombinant human protein MAGL and 10 µL different concentrations of MAGL inhibitors (six points within 1 nM to 1000 nM) were added to per well of a 96-well plate. JZL195 (a positive control inhibitor) served as a positive control well, after incubation for 5 min at room temperature, per well was added with 10 µL MAGL substrate, and […] were vibrated for 10 s and placed for 10 min at room temperature, then an absorbance was detected at 410 nm. […] Graphad Prism 5.0 was taken to calculate IC50 curves fitting each inhibitor.

Series [3] deals with reserpine-induced mice depression. Put plainly: Reserpine-induced mice depression. The following applies: for Autonomic activity / Awakening / Eyelid closure / Fear / Finger contact / Head touch / Upright: 2 h after reserpine 4 mg/kg. The arrangement: Awakening / Finger contact / Head touch / Fear / Autonomic activity / Eyelid closure / Upright: scale not given here. It counts as in vivo, ICR mouse. As for the experimental part: • Species: ICR mouse • Microbiological level: SPF • Quantity and sex of the animals purchased: male: 75; female: 75 • Quantity and sex of the animals used: male: 75; female: 75 • Body weight: 13-18 g when accepted
Group design: there were 50 pieces for each batch of animals and 3 batches in total; each batch of animals were randomly divided into 5 groups; low, middle and high-dose groups of the samples for test, blank control group and model group; a sample for test was tested per batch.
3.1 Animals were administrated via subcutaneous injection per day with doses of 4, 8 and 16 mg/kg for 6 d in total. 2 h later after the final administration, each animal was subcutaneously injected with 4 mg/kg reserpine except the blank control group; afterwards, indicators, such as, awakening, finger contact, fear, head touch, autonomic activity, upright and eyelid closure were determined 2 h later.
Data statistics and analysis were completed via a computer by SPSS 17.0 software and office 2016, and data statistics was inspected by Kruskal-Wallis. If the Kruskal-Wallis inspection result is significant ((P<0.05), multiple comparison inspection is further performed by a Mann-Whitney U nonparametric test method.

Another series has as its system ulcerative colitis mice. The series can be described thus: Mice ulcerative colitis (DSS). It is filed as in vivo, BALB/c mice. The following applies: DSS mice, 100 mg/kg ig. From the text:
Healthy male SPF-level BALB/c mice (8-week old and body mass: (20±2) g).
Modeling: the mice were randomly divided into […] at the end of the quarantine, 10 pieces for each group. The mice in the normal group drank normal water freely, and the rest groups of mice drank 1.0%-1.5% DSS solution freely for modeling, 7 d later after modeling, the mice in the modeling group drank normal water freely for 7 d, and 14 d served as a modeling period for four continuous periods, and the mice in the modeling group were administered at the same time.
End point of the experiment: experimental administration was performed for four periods, and dissection was performed on the 3rd and 4th day of the recovery period of the 4th period.
Test indicators: the mice were weighed twice a week after the beginning of the administration; diarrhea and hematochezia of the mice were observed, and times of hematochezia were recorded.
At the end of the experiment, the mice were dissected and weighed, and narcotized to take blood, then serum was preserved at -80° C. Spleen was taken and weighed to calculate the spleen index. The content of IL-1β in serum was detected via ELISA. Colorectum was cut and taken to measure the length of colorectum, then immobilized by formaldehyde and dyed by HE to detect the pathological change.

In series [4] the test system is mice writhing caused by acetic acid. The series can be described thus: Mice writhing caused by acetic acid. The settings on record: positive control 10 mg/kg ig.
Series [5] deals with mice pain response induced by hot plate. The series can be described thus: Mice pain response induced by hot plate. The following applies: hot plate 55°C, positive control 10 mg/kg ig 7 d. It is filed as in vivo, ICR mice. As for the experimental part: Female ICR mice (20±2) g were placed on an intelligent hot plate at 55±0.5° C., and latency (s) that the plantar of mice touched the hot plate until the occurrence of a hind paws licking response served as a pain threshold indicator; the mice (response latency <5 s or >30 s) or jumping mice were eliminated.
Grouping and administration were the same as those in Example 40.
The mice were continuously administered intragastrically for 7 consecutive days; the pain threshold of each group of mice was respectively determined once at 30, 60, 90 and 120 min after the final administration; the pain threshold greater than 60 s was calculated by 60 s.

Series [6] deals with mice with inflammatory pain. The series can be described thus: Pain threshold of mice with inflammatory pain (complete Freund's adjuvant). It counts as in vivo, SD mice. The following applies: complete Freund's adjuvant paw model, positive control 10 mg/kg ig once per day. Here is the method:
[…] (180±20) g were injected with a complete Freund’s adjuvant (50 µL/piece) at the right rear plantar of mice, and mice in the control group were injected with the corresponding volume of 0.5% sodium carboxymethylcellulose to establish a paw edema inflammatory pain model. After modeling, the mice were administered for 7 d continuously, and administered intragastrically once per day. Pain thresholds (s) of the mice were respectively determined on the 1st, 3rd and 7th day before administration and after modeling at different periods of time.
Grouping and administration were the same as those of Example 40.

The test system of series [7] is reserpine-induced mice migraine. Put plainly: Reserpine-induced mice migraine. It is filed as in vivo, ICR mice. Here is the method: The mice in the blank control group and model group were administered intragastrically via a solvent from the 5th day after modeling, and the rest groups of mice were respectively administered corresponding medicaments and doses for intragastric administration for 10 consecutive days; 1 h later after the final administration, the mice were weighed; blood was taken at inner canthus to detect blood coagulation time; whole blood was taken, and cerebrum was taken on an ice and preserved at -20° C. for the subsequent experiment.
Behavioral test: tail suspension activity was performed; the position 1 cm away from the tail of the mice was glued by an adhesive tape on the 9th day of the test, and the adhesive tape was penetrated by a steel needle, and hung in a dark box such that the mice were hung upside down; then the mice struggling times (total number of overturning from hanging) within 2 min were observed.
The mice were weighed 1 h later after the final administration; blood of inner canthus was taken via a capillary to detect the blood coagulation time.
Blood was taken to detect the content of 5-HT in serum via high-performance liquid chromatography. Cerebrum was taken on an ice and precooled and cleaned slightly with 0.5% sodium carboxymethylcellulose, and then sucked dry with a filter paper, and placed into a cryogenic tube, and preserved at -20° C. for further use, then the content of 5-HT in brain tissues was detected by high performance liquid chromatography.
5-HT test method: a sample was precipitated with 10% perchloric acid solution according to 1:1, and then centrifuged to take supernatant for test. Chromatographic conditions: the chromatographic column is a SHIMADZU VP-ODS C18 column (250*4.6 mm, 5 um), the mobile phase is a methanol-0.01 mol/L potassium acetate buffer solution (10:90, V/V, PH is adjusted to 4.00 with 0.2 mol/L citric acid) for gradient elution; the column temperature is 25° C., flow rate is 1.00 ml/min and test wavelength is 275 nm.

Turning to `O=C(Nc1ccccc1)C1CCN(C(=O)c2ccc(Oc3ccccc3)cc2)CC1` [MAGLZ-II-01], the “content in the brain (tissue distribution)” value in series [1] (1.0 h) was determined as 0; in series [1] (2.0 h), 0.6; in series [1] (5.0 h), 0.9. For the same molecule, the IC50 in series [2] turned out to be 45 nM.
For `Cc1cc(C)cc(NC(=O)C2CCN(C(=O)c3ccc(Oc4ccccc4)cc3)CC2)c1` [MAGLZ-II-02], the “content in the brain (tissue distribution)” value was determined as 0 in series [1] (1.0 h), 1.2 in series [1] (2.0 h) and 3.7 in series [1] (5.0 h). Moreover, in series [2], the IC50 was 27 nM.
As for `COc1cccc(NC(=O)C2CCN(C(=O)c3ccc(Oc4ccccc4)cc3)CC2)c1` [MAGLZ-II-03], the IC50 in series [2] is 749 nM.
The same measure, in the same setting: the same measure for `CCCC(=O)Oc1cccc(C(=O)N2CCC(C(=O)Nc3cccc(Cl)c3)CC2)c1` [MAGLZ-II-11F]: 126 nM; for `N[C@H](Cc1ccc(O)cc1)C(=O)Oc1cccc(C(=O)N2CCC(C(=O)Nc3cccc(Cl)c3)CC2)c1` [MAGLZ-II-11J]: 1600 nM; for `COc1cccc(C(=O)N2CCC(C(=O)Nc3cccc(Cl)c3)CC2)c1` [MAGLZ-II-14]: 333 nM.
Take `O=C(Nc1cccc(Cl)c1)C1CCN(C(=O)c2ccc(Oc3ccccc3)cc2)CC1` [MAGLZ-II-16]: in series [1], the “content in the brain, ranking of the test substances” value is “highest”. In series [1] (1.0 h), the “content in the brain (tissue distribution)” value is recorded as 0. For the same molecule, the “content in the brain (tissue distribution)” value in series [1] (2.0 h) amounted to 32.8. For the same molecule, the “content in the brain (tissue distribution)” value in series [1] (5.0 h) is on record as 16.9. Further, the “effect on reserpine-induced depression (conclusion)” value in series [3] (4, 8 and 16 mg/kg sc 6 d) was “has a certain effect”. Besides, in series [3] (high dose 16 mg/kg sc 6 d), the Autonomic activity amounted to 0.6±0.6, the Awakening came to 2±0, the Eyelid closure is on record as 0±0 and the Fear amounted to 0±0. For the same molecule, in series [3] (high dose 16 mg/kg sc 6 d), the Finger contact came to 1.6±0.8, the Head touch came to 0.8±0.98 and the Upright amounted to 0.4±1.2. In series [3] (low dose 4 mg/kg sc 6 d), this molecule returned an Autonomic activity of 0±0, an Awakening of 2±0, an Eyelid closure of 0±0 and a Fear of 0±0. Moreover, in series [3] (low dose 4 mg/kg sc 6 d), the Finger contact turned out to be 1.4±0.92, the Head touch is listed as 0.4±0.8 and the Upright came out at 0±0. In series [3] (middle dose 8 mg/kg sc 6 d), this molecule gave an Autonomic activity of 0.2±0.6, an Awakening of 1.8±0.6, an Eyelid closure of 0±0 and a Fear of 0±0. In series [3] (middle dose 8 mg/kg sc 6 d), this molecule showed a Finger contact of 1.2±0.98, a Head touch of 0.8±0.98 and an Upright of 0±0.
Turning to `O=C(Nc1ccc(Cl)c(Cl)c1)C1CCN(C(=O)c2ccc3ccccc3c2)CC1` [MAGLZ-II-24], the IC50 in series [2] amounted to 275 nM.
As to `O=C(Nc1cc(Cl)cc(Cl)c1)C1CCN(C(=O)c2ccc3ccccc3c2)CC1` [MAGLZ-II-25], the IC50 in series [2] was found to be 139 nM.
The same measure, in the same setting: next, `O=C(Nc1cccc(Cl)c1)C1CCN(C(=O)c2ccc3cc(O)ccc3c2)CC1` [MAGLZ-II-29]: 252 nM.
Same read-out and setting: next, `O=C(c1cccc(O)c1)N1CCC(c2nc3cc(Cl)ccc3o2)CC1` [MAGLZ-II-30]: 11 nM.
With `Nc1ccc(O)c(C(=O)O)c1` [Mesalazine, reference compound], the “Total times of hematochezia within the four periods” value in the series with ulcerative colitis mice was 32.80±4.96. Moreover, the Colon length in the series on ulcerative colitis mice (four periods) was 6.66±0.68 cm. The IL-1 content in the series with ulcerative colitis mice (serum, ELISA) was found to be 48.33 ± 6.49 pg/mL.
In series [4] (1 h before 0.7% acetic acid ip, within 20 min), `O=C(O)Cc1ccccc1Nc1c(Cl)cccc1Cl` [Positive medicament, diclofenac sodium, reference compound] registered a Writhing times of 24.5±12.9. Besides, the Latent time in series [4] (time to first writhing) was 358.5 ± 172.7 s. In addition, in series [4] (writhing inhibition), the Inhibition ratio amounted to 37.7%. Further, the Pain threshold in series [5] (30 min after final administration) is 22.32 ± 6.76 s; in series [5] (60 min) it was 24.34 ± 8.19 s; in series [5] (90 min), 22.64 ± 6.48 s; in series [5] (120 min), 22.52 ± 6.91 s; in series [6] (0 d), 12.71 ± 2.55 s; in series [6] (1 d), 6.38±0.91^∗ s. Moreover, the results for the Pain threshold in series [6] (3 d) and in series [6] (7 d) were 8.05±1.23^∗ s and 9.00±0.911^∗ s, respectively.
For `CN(C)CCc1c[nH]c2ccc(C[C@H]3COC(=O)N3)cc12` [Zolmitriptan, reference compound], the Blood coagulation time in series [7] (reserpine 0.2 mg/kg sc mice, 0.5 mg/kg ig 10 d, 1 h after final administration) amounted to 185.12±38.86 S. Besides, the “brain tissue 5-HT” value in series [7] (reserpine mice, 0.5 mg/kg ig 10 d) was determined as 1.93 ± 0.37 nmol/g. In series [7] (reserpine mice, 0.5 mg/kg ig, 9th day), the “Times of tail suspension (struggling times within 2 min)” value worked out at 18.13 ± 3.94.

The record behind these values is patent US20230090255A1, “MAGL INHIBITOR, PREPARATION METHOD THEREFOR AND USE THEREOF” (LUNAN PHARMACEUTICAL GROUP CORPORATION, priority 2019, published 2023).
